What all share (assay type): cell-based
The subject of one experiment is Staph. aureus C-5113. As to the kind of experiment: MIC by agar dilution, Staph. aureus C-5113. The settings on record: Staphylococcus aureus, C5113, 17 h, Mueller-Hinton agar, read-out: Minimal Inhibitory Concentration (MIC). The method in brief: (§1)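 Each compound was serially halved and mixed into Mueller-Hinton agar medium. Bacteria (10^6 CFU per ml) were then inoculated by replicator, and growth was assessed after incubation for 17±1 hours at 35°-37° C.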
On the technique in general: In agar dilution the substance is mixed into plates at graded concentrations.

The next experiment concerns Prov. stuartii IFO 12930. As to the kind of experiment: MIC by agar dilution, Prov. stuartii IFO 12930. Particulars: Providencia stuartii, IFO12930, 17 h, Mueller-Hinton agar, read-out: Minimal Inhibitory Concentration (MIC). The method in brief: as §1
For experiment [1], the system named is S. epidermidis ATCC 12228. Put plainly: MIC by agar dilution, S. epidermidis ATCC 12228. Particulars: Staphylococcus epidermidis, ATCC12228, 17 h; S. epidermidis ATCC 12228; agar dilution, Mueller-Hinton agar; read-out: Minimal Inhibitory Concentration (MIC). The method, boiled down:
as §1

A further experiment concerns K. pneumoniae NCTC 9632. Put plainly: MIC by agar dilution, K. pneumoniae NCTC 9632. The settings on record: Klebsiella pneumoniae, NCTC9632, 17 h; K. pneumoniae NCTC 9632; agar dilution, Mueller-Hinton agar; read-out: Minimal Inhibitory Concentration (MIC). The method, boiled down:
as §1

Experiment [2] relates to Ps. aeruginosa ATCC 10145. As to the kind of experiment: MIC by agar dilution, Ps. aeruginosa ATCC 10145. Particulars: Pseudomonas aeruginosa, ATCC10145, 17 h, Mueller-Hinton agar, read-out: Minimal Inhibitory Concentration (MIC). The method in brief: as §1
The test system of the next experiment is Ent. aerogenes IFO 12979. As to the kind of experiment: MIC by agar dilution, Ent. aerogenes IFO 12979. The settings on record: Klebsiella aerogenes, IFO12979, 17 h, Mueller-Hinton agar, read-out: Minimal Inhibitory Concentration (MIC). The method, boiled down:
as §1

The subject of experiment [3] is Ps. aeruginosa NCTC 10490. Put plainly: MIC by agar dilution, Ps. aeruginosa NCTC 10490. Particulars: Pseudomonas aeruginosa, NCTC10490, 17 h, Mueller-Hinton agar, read-out: Minimal Inhibitory Concentration (MIC). The method, boiled down: as §1
A further experiment deals with B. subtilis ATCC 6633. Put plainly: MIC by agar dilution, B. subtilis ATCC 6633. The settings on record: Bacillus subtilis, ATCC6633, 17 h; B. subtilis ATCC 6633; agar dilution, Mueller-Hinton agar; read-out: Minimal Inhibitory Concentration (MIC). The method, boiled down: as §1
A further experiment relates to P. vulgaris NCTC 8313. Put plainly: MIC by agar dilution, P. vulgaris NCTC 8313. The settings on record: Proteus vulgaris, NCTC8313, 17 h; P. vulgaris NCTC 8313; agar dilution, Mueller-Hinton agar; read-out: Minimal Inhibitory Concentration (MIC). The method, boiled down:
as §1

Another experiment has as its system Ent. cloacae IFO 13535. As to the kind of experiment: MIC by agar dilution, Ent. cloacae IFO 13535. The settings on record: Enterobacter cloacae, IFO13535, 17 h; Ent. cloacae IFO 13535; agar dilution, Mueller-Hinton agar; read-out: Minimal Inhibitory Concentration (MIC). The method, boiled down:
as §1

The subject of another experiment is Staph. aureus C-5216. As to the kind of experiment: MIC by agar dilution, Staph. aureus C-5216. The settings on record: Staphylococcus aureus, C5216, 17 h, Mueller-Hinton agar, read-out: Minimal Inhibitory Concentration (MIC). The method, boiled down: as §1
The test system of a further experiment is E. coli NIHJ JC-2. As to the kind of experiment: MIC by agar dilution, E. coli NIHJ JC-2. The settings on record: Escherichia coli, NIHJJC2, 17 h; E. coli NIHJ JC-2; agar dilution, Mueller-Hinton agar; read-out: Minimal Inhibitory Concentration (MIC). The method in brief:
as §1

In a further experiment the test system is E. coli No. 29. As to the kind of experiment: MIC by agar dilution, E. coli No. 29. Particulars: Escherichia coli, 17 h; E. coli No. 29; agar dilution, Mueller-Hinton agar; read-out: Minimal Inhibitory Concentration (MIC). The method in brief:
as §1

The subject of another experiment is Staph. aureus ATCC 6538P. As to the kind of experiment: MIC by agar dilution, Staph. aureus ATCC 6538P. The settings on record: Staphylococcus aureus, ATCC6538P, 17 h; Staph. aureus ATCC 6538P; agar dilution, Mueller-Hinton agar; read-out: Minimal Inhibitory Concentration (MIC). The method in brief: as §1
Experiment [4] has as its system Ser. marcescens IFO 12648. Put plainly: MIC by agar dilution, Ser. marcescens IFO 12648. Particulars: Serratia marcescens, IFO12648, 17 h; Ser. marcescens IFO 12648; agar dilution, Mueller-Hinton agar; read-out: Minimal Inhibitory Concentration (MIC). The method in brief:
as §1

For a further experiment, the system named is M. morganii DY-1. Put plainly: MIC by agar dilution, M. morganii DY-1. The settings on record: Morganella morganii, DY1, 17 h; M. morganii DY-1; agar dilution, Mueller-Hinton agar; read-out: Minimal Inhibitory Concentration (MIC). The method, boiled down: as §1
The subject of the next experiment is Ps. aeruginosa DY-2. As to the kind of experiment: MIC by agar dilution, Ps. aeruginosa DY-2. The settings on record: Pseudomonas aeruginosa, DY2, 17 h; Ps. aeruginosa DY-2; agar dilution, Mueller-Hinton agar; read-out: Minimal Inhibitory Concentration (MIC). The method, boiled down: as §1
The subject of the next experiment is E. coli DY-1. Put plainly: MIC by agar dilution, E. coli DY-1. Particulars: Escherichia coli, DY1, 17 h; E. coli DY-1; agar dilution, Mueller-Hinton agar; read-out: Minimal Inhibitory Concentration (MIC). The method, boiled down:
as §1

The next experiment concerns Staph. aureus C-57. As to the kind of experiment: MIC by agar dilution, Staph. aureus C-57. Particulars: Staphylococcus aureus, C57, 17 h, Mueller-Hinton agar, read-out: Minimal Inhibitory Concentration (MIC). The method, boiled down: as §1
The subject of a further experiment is Staph. aureus Smith. Put plainly: MIC by agar dilution, Staph. aureus Smith. The settings on record: Staphylococcus aureus, 17 h, Mueller-Hinton agar, read-out: Minimal Inhibitory Concentration (MIC). The method in brief:
as §1

Values after ≈ are worked out from the molar mass of the structure shown.

For `Nc1nc(C(=NOCF)C(=O)NC2C(=O)N3C(C(=O)[O-])=C(C[n+]4ccn5c(CO)ccc5c4)CSC23)cs1` (stereo not drawn) [Ex. 22, 7-β-[(Z)-2-(2-aminothiazol-4-yl)-2-fluoromethoxyiminoacetamido]-3-(6-hydroxymethylpyrrolo[1,2-a]pyrazinium-2-yl)methyl-3-cephem-4-carboxylate], the MIC in the experiment with Staph. aureus C-5113 is 1.56 µg/mL (≈ 2.78 µM); in the experiment with Prov. stuartii IFO 12930 it was no more than 0.006 µg/mL; in experiment [1] it was 0.025 µg/mL (≈ 0.0445 µM); in the experiment on K. pneumoniae NCTC 9632, no more than 0.006 µg/mL; in [2], 0.39 µg/mL (≈ 0.694 µM); in the experiment on Ent. aerogenes IFO 12979, no more than 0.006 µg/mL. The MIC is 0.1 µg/mL (≈ 0.178 µM) in experiment [3]; 0.1 µg/mL (≈ 0.178 µM) with B. subtilis ATCC 6633; no more than 0.006 µg/mL in the experiment with P. vulgaris NCTC 8313; 0.05 µg/mL (≈ 0.089 µM) in the experiment with Ent. cloacae IFO 13535; 0.78 µg/mL (≈ 1.39 µM) in the experiment with Staph. aureus C-5216; no more than 0.006 µg/mL in the experiment on E. coli NIHJ JC-2. Also, the MIC is no more than 0.006 µg/mL in the experiment on E. coli No. 29; 0.2 µg/mL (≈ 0.356 µM) in the experiment with Staph. aureus ATCC 6538P; no more than 0.006 µg/mL in experiment [4]; no more than 0.006 µg/mL with M. morganii DY-1; 1.56 µg/mL (≈ 2.78 µM) with Ps. aeruginosa DY-2; no more than 0.006 µg/mL in the experiment on E. coli DY-1. Also, the values for the MIC in the experiment on Staph. aureus C-57 and with Staph. aureus Smith were 50 µg/mL (≈ 89 µM) and 0.78 µg/mL (≈ 1.39 µM), respectively.
For `Nc1nc(C(=NOCC(=O)O)C(=O)NC2C(=O)N3C(C(=O)[O-])=C(C[n+]4ccn5c(CO)ccc5c4)CSC23)cs1` (stereo not drawn) [Ex. 23, 7-β-[(Z)-2-(2-aminothiazol-4-yl)-2-carboxymethoxyiminoacetamido]-3-(6-hydroxymethylpyrrolo[1,2-a]pyrazinium-2-yl)methyl-3-cephem-4-carboxylate], the MIC in the experiment with Staph. aureus C-5113 was 6.25 µg/mL (≈ 10.6 µM); with Prov. stuartii IFO 12930, no more than 0.006 µg/mL; in [1], 0.39 µg/mL (≈ 0.664 µM); in the experiment with K. pneumoniae NCTC 9632 it was 0.012 µg/mL (≈ 0.0204 µM); in experiment [2] it was 0.78 µg/mL (≈ 1.33 µM); with Ent. aerogenes IFO 12979, 0.012 µg/mL (≈ 0.0204 µM). The MIC was 0.39 µg/mL (≈ 0.664 µM) in experiment [3]; 0.78 µg/mL (≈ 1.33 µM) in the experiment with B. subtilis ATCC 6633; no more than 0.006 µg/mL with P. vulgaris NCTC 8313; 0.2 µg/mL (≈ 0.34 µM) with Ent. cloacae IFO 13535; 12.5 µg/mL (≈ 21.3 µM) in the experiment with Staph. aureus C-5216; 0.025 µg/mL (≈ 0.0425 µM) in the experiment with E. coli NIHJ JC-2. The MIC in the experiment with E. coli No. 29 was determined as 0.025 µg/mL (≈ 0.0425 µM); in the experiment on Staph. aureus ATCC 6538P, 1.56 µg/mL (≈ 2.65 µM); in [4], 0.012 µg/mL (≈ 0.0204 µM); in the experiment with M. morganii DY-1, 0.012 µg/mL (≈ 0.0204 µM); in the experiment on Ps. aeruginosa DY-2, 3.13 µg/mL (≈ 5.33 µM); in the experiment with E. coli DY-1 it was 0.025 µg/mL (≈ 0.0425 µM). Also, the MIC in the experiment with Staph. aureus C-57 was 100 µg/mL (≈ 170 µM); in the experiment with Staph. aureus Smith, 6.25 µg/mL (≈ 10.6 µM).
On to `CC(C)(ON=C(C(=O)NC1C(=O)N2C(C(=O)[O-])=C(C[n+]3ccn4c(CO)ccc4c3)CSC12)c1csc(N)n1)C(=O)O` (stereo not drawn) [Ex. 24, 7-β-[(Z)-2-(2-aminothiazol-4-yl)-2-(2-carboxyprop-2-oxyimino)acetamido]-3-(6hydroxymethylpyrrolo[1,2-a]pyrazinium-2-yl)methyl-3-cephem-4-carboxylate], for which the MIC in the experiment on Staph. aureus C-5113 stood at 1.56 µg/mL (≈ 2.53 µM); in the experiment on Prov. stuartii IFO 12930 it was 0.39 µg/mL (≈ 0.633 µM); in experiment [1], 0.39 µg/mL (≈ 0.633 µM); in the experiment on K. pneumoniae NCTC 9632 it was 0.78 µg/mL (≈ 1.27 µM); in experiment [2], 12.5 µg/mL (≈ 20.3 µM); in the experiment on Ent. aerogenes IFO 12979 it was 0.2 µg/mL (≈ 0.325 µM). The MIC in experiment [3] worked out at 6.25 µg/mL (≈ 10.2 µM); in the experiment with B. subtilis ATCC 6633, 1.56 µg/mL (≈ 2.53 µM); in the experiment on P. vulgaris NCTC 8313 it was 0.05 µg/mL (≈ 0.0812 µM); with Ent. cloacae IFO 13535, 6.25 µg/mL (≈ 10.2 µM); with Staph. aureus C-5216 it was 6.25 µg/mL (≈ 10.2 µM); with E. coli NIHJ JC-2 it was 3.13 µg/mL (≈ 5.08 µM). The MIC was determined as 1.56 µg/mL (≈ 2.53 µM) with E. coli No. 29; 0.39 µg/mL (≈ 0.633 µM) in the experiment with Staph. aureus ATCC 6538P; 0.39 µg/mL (≈ 0.633 µM) in experiment [4]; 0.78 µg/mL (≈ 1.27 µM) with M. morganii DY-1; 25 µg/mL (≈ 40.6 µM) with Ps. aeruginosa DY-2; 0.78 µg/mL (≈ 1.27 µM) with E. coli DY-1. In addition, the MIC with Staph. aureus C-57 was found to be 100 µg/mL (≈ 162 µM); with Staph. aureus Smith, 3.13 µg/mL (≈ 5.08 µM).

Values taken from patent US5593984A, “Cephalosporin derivatives” (Yuhan Corporation, priority 1992, dated 1997).
